Measured values from US7671057B2, “Therapeutic agent for type II diabetes comprising protease-inhibiting compound” (Ono Pharmaceutical Co., Ltd., priority 2004, dated 2010).
Entries after “also recorded” stand apart in the source; their conditions may differ.

Assays:
KK-A^y/Ta Jcl mice [1] = assay: Blood-sugar level, administration as admixture with food (Example 2); type: in vivo, mouse
Description: (§1) KK-A^y/Ta Jcl Mice (male, 6- to 7-weeks aged, the number of cases; 8 animals) were treated through individual administration, in the form of an admixture with a food, of the Test Compound 2 (N-allyl-N-{(2E)-3-[4-({4-[amino(imino)methyl]phenoxy}-carbonyl)phenyl]-2-methyl-2-propenoyl}glycine/dimethane-sulfonate) of the present invention and the Control Compound 1 (5-(4-[2-(5-ethylpyridine-2-yl)ethoxy]benzyl)-1,3-thiazolidine-2,4-dione; pioglitazone) at the daily dose of 16.8 mg/100 g-food for 7 consecutive days, whereby the control group was fed with an ordinary food alone.
(§2) Blood was drawn from the tail vein individually on the day (Day 1) preceding to administration of the Test Compound in the form of an admixture with a food, and on Days 2, 5, 7 and 14 of administration, and the blood samples were subjected to measurement of the blood-sugar level in accordance with the same procedure as described in Example 1, while, at the same time, the animals were weighed.

KK-A^y/Ta Jcl mice [2] = assay: Weights of pancreas, liver and kidney at autopsy (Example 3); type: in vivo, mouse
Description: (§3) On Day 28 of administration of each compound in the form of an admixture with a food, furthermore, each animal after blood had been drawn from the tail vein was treated through individual forced oral administration of the Test Compound 2 in the form of the solutions individually consisting of 0.2, 0.6, 2.0 and 6.0 mg/mL-0.5% CMC suspension in each 5 mL/kg portion, as well as the Control Compound 1 in the form of the solutions individually consisting of 2.0 and 6 mg/mL-0.5% CMC suspension in each 5 ml/kg portion, followed by blood drawing 30 min. later and autopsy to thereby measure the weights of the pancreas, liver and kidney, whereby the control group was treated through administration of the 0.5% CMC suspension in the same portion.

[3] = Body weight, administration as admixture with food (Example 2); type: in vivo, mouse
Description: as §1, §2

KK-A^y/Ta Jcl mice [4] = assay: Plasma GLP-1, glucagon, blood-sugar, HbA1c and TG 30 min after forced oral administration on Day 28 (Example 3); type: in vivo, mouse
Description: as §3
(§4) The blood samples taken from the tail vein on the respective specified days after the administration were subjected to measurement of the blood-sugar level in accordance with the method as described in Example 1, while the plasma glucagon level after the forced oral administration performed on Days 28 was measured in accordance with the ELISA method as described in Example 1. Also, the glycosylated hemoglobin (HbA1c) and GLP-1 levels were determined in accordance with the latex coagulation method and the ELISA method (YK160, GLP-1 EIA Kit, produced by K.K. Yanaihara Kenkyu-sho of Japan), respectively, while the TG level was measured in accordance with the method as described in Example 1. The total pancreatic insulin content after oral administration of each compound was determined by adding 75% ethanol to the isolated pancreas as frozen, followed by homogenization, and collecting the insulin fraction through Sep-Pak (C18; WATER) treatment of the supernatant liquid produced by centrifugation, followed by determination with the ELIZA method.

[5] = target: leukotriene B4 (LTB4) receptor (Homo sapiens, UniProt Q15722); settings: cited from earlier work
KK-A^y/Ta Jcl mice [6] = assay: Blood-sugar level at satiety, dose-ranging food admixture up to Day 28 (Example 3); type: in vivo, mouse; settings: for Blood-sugar level: end of the test (Day 28)
Description: KK-A^y/Ta Jcl Mice (male, 6-weeks aged, the number of cases; 8 animals) were treated through individual administration, in the form of an admixture with a food, of the Test Compound 2 (N-allyl-N-{(2E)-3-[4-({4-[amino(imino)methyl]phenoxy}-carbonyl)phenyl]-2-methyl-2-propenoyl}glycine/dimethanesulfonate) of the present invention at the daily doses of 0.56 mg, 1.68 mg, 5.6 mg and 16.8 mg/100 g-food, respectively, and the Control Compound 1 (5-{4-[2-(5-ethylpyridine-2-yl)-ethoxy]benzyl}-1,3-thiazolidine-2,4-dion; pioglitazone) at the daily doses of 5.6 mg and 16.8 mg/100 g-food, respectively, […], whereby the control group was fed with an ordinary food alone.
Blood was drawn from the tail vein individually on the day preceding to administration of each compound in the form of an admixture with a food, and on Days 6, 11, 16, 21 and 28 of administration.
as §4

[7] = test system: pancreatic Langerhans' islets; assay: Histopathological analysis of the pancreas (Example 3); type: in vivo, mouse; settings: Day 28
Description: Histopathological analysis of the pancreas (pathological analysis of the pancreatic Langerhans' islets (α-, β- and δ-cells) was carried out by embedding the tissue in paraffin, followed by thin slicing and respective staining through the Grimelius staining, Gomori's aldehyde-fuchsin staining and Hellman-Hellerstroem' staining.

KK-A^y/Ta Jcl mice [8] = assay: Total pancreatic insulin content (Example 3); type: in vivo, mouse
Description: as §4

[9] = day preceding administration (baseline), 16.8 mg/100 g-food group
[10] = autopsy Day 28, Dose 0.56 (g/100 g-food)
[11] = autopsy Day 28, Dose 1.68 (g/100 g-food)
[12] = autopsy Day 28, Dose 16.8 (g/100 g-food)

leukotriene B4 (LTB4) receptor, sequence (Q15722 whole entry): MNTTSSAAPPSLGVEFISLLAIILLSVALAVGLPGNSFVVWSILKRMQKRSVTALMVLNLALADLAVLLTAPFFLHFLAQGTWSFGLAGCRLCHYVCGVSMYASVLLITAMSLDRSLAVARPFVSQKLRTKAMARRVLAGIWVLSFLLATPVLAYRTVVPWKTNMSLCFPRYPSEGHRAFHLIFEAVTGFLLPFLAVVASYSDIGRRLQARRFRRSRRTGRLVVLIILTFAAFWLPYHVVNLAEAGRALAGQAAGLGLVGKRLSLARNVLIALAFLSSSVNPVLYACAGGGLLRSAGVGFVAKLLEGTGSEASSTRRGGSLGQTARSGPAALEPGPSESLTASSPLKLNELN

## C=CCN(CC(=O)O)C(=O)/C(C)=C/c1ccc(C(=O)Oc2ccc(C(=N)N)cc2)cc1 [Test Compound 2, N-allyl-N-{(2E)-3-[4-({4-[amino(imino)methyl]phenoxy}-carbonyl)phenyl]-2-methyl-2-propenoyl}glycine/dimethane-sulfonate]
KK-A^y/Ta Jcl mice [1]; 16.8 mg/100 g-food admixture
  Blood-sugar level Day 2: 286.5 ± 58.3 mg/dL
  Blood-sugar level Day 5: 314.8 ± 14.4 mg/dL
  Blood-sugar level Day 7: 291.0 ± 5.1 mg/dL
  Blood-sugar level Day 14: 248.0 ± 11.5 mg/dL
KK-A^y/Ta Jcl mice [1]; [9]
  Blood-sugar level Day 1: 300.0 ± 18.9 mg/dL
KK-A^y/Ta Jcl mice [1]; food admixture 16.8 mg/100 g-food, as from Day 5 afterwards
  Blood-sugar lowering action (in words): significant blood-sugar lowering action; also recorded: more potent blood-sugar lowering action
KK-A^y/Ta Jcl mice [2]; autopsy Day 28
  Weight of the kidney (in words): suppressed from rising
  Weight of the liver (in words): suppressed from rising
  Weight of the pancreas (in words): increased
KK-A^y/Ta Jcl mice [2]; [10]
  Weight Kidney: 0.47 ± 0.01 g
  Weight Liver: 2.01 ± 0.08 g
  Weight Pancreas: 0.342 ± 0.01 g
KK-A^y/Ta Jcl mice [2]; [11]
  Weight Kidney: 0.49 ± 0.01 g
  Weight Liver: 2.08 ± 0.07 g
  Weight Pancreas: 0.41 ± 0.02 g
KK-A^y/Ta Jcl mice [2]; [12]
  Weight Kidney: 0.41 ± 0.01 g
  Weight Liver: 1.52 ± 0.06 g
  Weight Pancreas: 0.45 ± 0.03 g
[3]; 16.8 mg/100 g-food admixture
  Body weight Day 2: 29.8 ± 0.7 g
  Body weight Day 5: 30.6 ± 0.8 g
  Body weight Day 7: 32.4 ± 1.0 g
  Body weight Day 14: 34.6 ± 1.3 g
[3]; [9]
  Body weight Day 1: 30.6 ± 0.6 g
[3]; food admixture 16.8 mg/100 g-food, time course
  Effect on body weight (in words): not observed to produce any difference from the control group; also recorded: did not show any body-weight elevating actions
KK-A^y/Ta Jcl mice [4]
  Change in HbA1C level (in words): decreased
  Change in TG level (in words): decreased
  Change in blood-sugar level (in words): decreased
  Change in plasma glucagon level (in words): drops in the plasma glucagon level
KK-A^y/Ta Jcl mice [4]; 30 min after forced oral administration
  Change in plasma GLP-1 level (in words): plasma GLP-1 increasing effect
[5]
  LTB4 receptor antagonistic action: LTB4 antagonistic action
KK-A^y/Ta Jcl mice [6]; 5.6 mg/100 g group
  Time-course changes in blood-sugar level at satiety vs Control Group (in words, FIG. 1): significant drop in the blood-sugar level at the end of the test
KK-A^y/Ta Jcl mice [6]; 16.8 mg/100 g group
  Time-course changes in blood-sugar level at satiety vs Control Group (in words, FIG. 1): significant continued drops in the blood-sugar level
KK-A^y/Ta Jcl mice [6]; Dose 0.56 (g/100 g-food)
  Blood-sugar level: 524.6 ± 47.3 mg/dL
KK-A^y/Ta Jcl mice [6]; Dose 1.68 (g/100 g-food)
  Blood-sugar level: 620.9 ± 79.6 mg/dL
KK-A^y/Ta Jcl mice [6]; Dose 5.6 (g/100 g-food)
  Blood-sugar level: 369.7 ± 39.6 mg/dL
KK-A^y/Ta Jcl mice [6]; Dose 16.8 (g/100 g-food)
  Blood-sugar level: 251.2 ± 34.7 mg/dL
[7]
  Number of pancreatic B-cells (postmortem findings): increase the number of pancreatic B-cells
  Size of Langerhans' cells of the pancreatic islets (postmortem findings): enlarge the Langerhans' cells of the pancreatic islets
KK-A^y/Ta Jcl mice [8]; Day 28
  Total pancreatic insulin content (in words): increase in the total pancreatic insulin content
KK-A^y/Ta Jcl mice [8]; Day 28, Dose 1.68 (g/100 g-food)
  Total pancreatic insulin content: 9.40 ± 2.24 µg
KK-A^y/Ta Jcl mice [8]; Day 28, Dose 5.6 (g/100 g-food)
  Total pancreatic insulin content: 17.11 ± 2.76 µg
